According to PubChem BioAssay (NCI):
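Cells were grown in 96-well plates and exposed to each compound for 48 hours at five concentrations; endpoints were interpolated linearly between bracketing concentrations, or set to the highest concentration if not reached. TGI is the concentration that stops growth completely.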

What was measured:
Assay in all cases: NCI-60 cell line screen, 48 h
[1] = tested on: KM20L2 colon
[2] = tested on: OVCAR-3 ovarian
[3] = tested on: SNB-78 CNS
[4] = tested on: IGROV1 ovarian
[5] = tested on: XF 498 CNS
[6] = tested on: HCC-2998 colon
[7] = tested on: RPMI-8226 leukemia
[8] = tested on: SK-MEL-5 melanoma
[9] = tested on: A549 NSCLC
[10] = tested on: EKVX NSCLC
[11] = tested on: UACC-62 melanoma
[12] = tested on: SW-620 colon
[13] = tested on: ACHN renal
[14] = tested on: MALME-3M melanoma
[15] = tested on: SF-268 CNS
[16] = tested on: COLO 205 colon
[17] = tested on: A498 renal
[18] = tested on: HOP-18 NSCLC
[19] = tested on: SF-539 CNS
[20] = tested on: HT29 colon
[21] = tested on: SK-MEL-28 melanoma
[22] = tested on: CAKI-1 renal
[23] = tested on: 786-0 renal
[24] = tested on: SNB-75 CNS
[25] = tested on: HCT-15 colon
[26] = tested on: OVCAR-8 ovarian
[27] = tested on: DMS 273 small cell lung
[28] = tested on: U251 CNS
[29] = tested on: M19-MEL melanoma
[30] = tested on: HOP-62 NSCLC
[31] = tested on: HCT-116 colon
[32] = tested on: MOLT-4 leukemia
[33] = tested on: SNB-19 CNS
[34] = tested on: K-562 leukemia
[35] = tested on: HOP-92 NSCLC
[36] = tested on: DMS 114 small cell lung
[37] = tested on: SN12C renal
[38] = tested on: KM12 colon
[39] = tested on: TK-10 renal
[40] = tested on: SK-OV-3 ovarian
[41] = tested on: UO-31 renal
[42] = tested on: M14 melanoma
[43] = tested on: UACC-257 melanoma
[44] = tested on: HL-60(TB) leukemia
[45] = tested on: DLD-1 colon
[46] = tested on: OVCAR-5 ovarian
[47] = tested on: NCI-H460 lung
[48] = tested on: NCI-H522 lung
[49] = tested on: SR leukemia
[50] = tested on: LOX IMVI melanoma
[51] = tested on: SK-MEL-2 melanoma
[52] = tested on: NCI-H23 lung
[53] = tested on: CCRF-CEM leukemia
[54] = tested on: RXF 393 renal
[55] = tested on: OVCAR-4 ovarian
[56] = tested on: LXFL 529 NSCLC
[57] = tested on: SF-295 CNS
[58] = tested on: NCI-H226 lung

Measured: TGI

NC(=O)c1ccccc1[N+](=O)[O-]
> 100 µM: [1] | [2] | [3] | [4] | [5] | [6] | [7] | [8] | [9] | [10] | [11] | [12] | [13] | [14] | [15] | [16] | [17] | [18] | [19] | [20] | [21] | [22] | [23] | [24] | [25] | [26] | [27] | [28] | [29] | [30] | [31] | [32] | [33] | [34] | [35] | [36] | [37]

O=c1[nH]c2ccccc2nc1/C=C(\O)c1ccccc1O
> 100 µM: [1] | [38] | [2] | [3] | [4] | [39] | [6] | [40] | [7] | [8] | [9] | [10] | [41] | [42] | [11] | [12] | [43] | [44] | [45] | [13] | [14] | [15] | [16] | [17] | [46] | [18] | [47] | [48] | [20] | [21] | [22] | [23] | [24] | [25] | [49] | [50] | [26] | [51] | [52] | [27] | [28] | [53] | [54] | [29] | [30] | [55] | [56] | [31] | [32] | [33] | [34] | [35] | [36] | [37] | [57] | [58]
